# What was measured:
# [1] = molecular target: T1, CbTubZ316 (Clostridium phage c-st, UniProt Q331T7); conditions: nucleotide-binding pocket; crystals at pH 5.5, 22 °C
# T1 construct: gene tubZ
# [2] = molecular target: T2, BtTubZ (Bacillus thuringiensis, UniProt Q8KNP3); assay: HPLC of polymer-bound nucleotide; assay type: biochemical
# T2 construct: gene tubZ; construct not described in main text; filaments
# T2 sequence (Q8KNP3 whole entry): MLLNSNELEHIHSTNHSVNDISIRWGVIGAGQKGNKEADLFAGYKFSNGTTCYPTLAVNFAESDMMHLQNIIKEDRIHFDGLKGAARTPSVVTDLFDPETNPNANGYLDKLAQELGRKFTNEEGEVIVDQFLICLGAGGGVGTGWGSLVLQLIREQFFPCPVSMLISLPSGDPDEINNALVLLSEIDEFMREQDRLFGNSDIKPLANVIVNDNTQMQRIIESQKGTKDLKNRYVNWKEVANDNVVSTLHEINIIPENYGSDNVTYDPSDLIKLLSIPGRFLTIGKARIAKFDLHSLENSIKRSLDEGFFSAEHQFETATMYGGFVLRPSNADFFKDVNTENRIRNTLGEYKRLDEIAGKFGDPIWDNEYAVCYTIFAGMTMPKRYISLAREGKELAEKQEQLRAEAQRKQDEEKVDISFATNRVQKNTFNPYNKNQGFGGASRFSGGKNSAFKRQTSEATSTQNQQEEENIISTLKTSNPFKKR
# T1 sequence (Q331T7 1-316 limits assumed): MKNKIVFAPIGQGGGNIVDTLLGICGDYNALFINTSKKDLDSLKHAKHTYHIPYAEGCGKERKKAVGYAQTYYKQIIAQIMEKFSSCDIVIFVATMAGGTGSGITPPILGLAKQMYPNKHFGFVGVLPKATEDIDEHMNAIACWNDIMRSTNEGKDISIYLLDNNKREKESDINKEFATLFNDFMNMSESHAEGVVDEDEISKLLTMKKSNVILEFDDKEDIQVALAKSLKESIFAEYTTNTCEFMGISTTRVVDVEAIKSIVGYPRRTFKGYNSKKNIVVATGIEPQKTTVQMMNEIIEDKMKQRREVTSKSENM
structure (smiles),measurement,setting,value
Nc1nc2c(ncn2[C@@H]2O[C@H](COP(=O)(O)OP(=O)(O)O)[C@@H](O)[C@H]2O)c(=O)[nH]1 [GDP],"X-ray crystal structure, 2.4 Å",[1],TubZ316 displays GDP at the nucleotide-binding pocket
Nc1nc2c(ncn2[C@@H]2O[C@H](COP(=O)(O)OP(=O)(O)OP(O)(O)=S)[C@@H](O)[C@H]2O)c(=O)[nH]1 [GTP-γ-S],HPLC of polymer-bound nucleotide,[2]; filaments assembled with GTP-γ-S,nucleotide content of BtTubZ filaments assembled with GTP- γ-S and GTP
Nc1nc2c(ncn2[C@@H]2O[C@H](COP(=O)(O)OP(=O)(O)OP(=O)(O)O)[C@@H](O)[C@H]2O)c(=O)[nH]1 [GTP],HPLC of polymer-bound nucleotide,[2]; filaments assembled with GTP,nucleotide content of BtTubZ filaments assembled with GTP- γ-S and GTP
